Laboratory results published in patent US4563476A, “Substituted 5-hydroxy-2,3-dihydrobenzofurans and analogs thereof useful as anti-inflammatory agents” (Merck & Co., Inc., priority 1983, dated 1986).

Tests used:
[1] = tested on: inflammatory responses elicited by topically applied phorbol myristate acetate (PMA) or topically applied arachidonic acid (AA); assay: Topical mouse ear assay (TME), edema by wet weight; type: in vivo, mice; settings: PMA or AA not specified
Method: The topical mouse ear assay (TME) is the method by which the novel compounds of the present invention are evaluated for its effect on inflammatory responses elicited by topically applied phorbol myristate acetate (PMA) or topically applied arachidonic acid (AA). The inflammatory responses may be in the form of edema (measured by wet weight); vascular permeability (measured by ^125 I-BSA accumulation); or PMN infiltration (measured by myeloperoxidase activity).
Method: The right ears of mice (5 mice per group) were treated topically with either […] or 1000 μg AA alone or with the test compound in 25 μl of vehicle. The vehicle was water/pyridine/acetone (1:2:97). A control group of mice received the vehicle only. The mice were allowed food and water ad libitum during the treatment period; 2 hours for AA and 4 hours for PMA. The mice were sacrificed by cervical dislocation and a 6 mm diameter disc of tissue punched from both the treated and untreated ears. The tissue biopsies were immediately weighed and the weight increase of the treated ear relative to the weight of the untreated ear determined.
For the determination of vascular permeability, […] ^125 I-bovine serum albumin (^125 I-BSA) was administered in 0.5 ml phosphate buffered saline 15 min prior to the topical application. At the termination of the experiment, the amount of radioactivity in both the treated and untreated ear biopsies was determined and the increased amount of radioactivity in the treated tissue relative to the amount of radioactive in the untreated tissue determined.
As a measure of PMN infiltration, the amount of myeloperoxidase (MPO) activity in the same tissues was determined. The tissue biopsies were homogenized into 1 ml 0.5% hexadecyltrimethylammonium bromide and centrifuged for 45 min. at 1200×g. Aliquots 40 μl, of the supernatant phases were assayed for MPO activity by a colorimetric method devised by H. Dougherty for automated Titertek analysis. The MPO activity is expressed as the OD450 of the treated ear homogenate minus the OD450 of the non-treated ear homogenate.
All of the data are expressed as the mean ±SEM, N=5 mice/group.

[2] = tested on: inflammatory responses elicited by topically applied phorbol myristate acetate (PMA) or topically applied arachidonic acid (AA); settings: previously established; cited from earlier work

Structure (SMILES)	Edema (% inhibition) ([1]; Dosage 50 μg) [%]	Edema (% inhibition) ([1]; Dosage 100 μg) [%]	Edema (% inhibition) ([1]; Dosage 200 μg) [%]	Edema (% inhibition) ([1]; Dosage 400 μg) [%]	activity in the topical mouse ear assay [2]
CC(=O)c1ccc(NCc2cc3c(cc2O)CCO3)cc1 [A, 5-Hydroxy-6-(4-acetylphenyl)aminomethyl-2,3-dihydrobenzofuran]	44	45	60	76	
C[C@@H]1C[C@H]2[C@@H]3CCC4=CC(=O)C=C[C@]4(C)[C@@]3(F)[C@@H](O)C[C@]2(C)[C@@]1(O)C(=O)CO [dexamethasone]					active
COc1ccc2c(c1)c(CC(=O)O)c(C)n2C(=O)c1ccc(Cl)cc1 [Indomethacin, indomethacin]	24	42	46	85	active
